We go through 37 molecules from patent US10123993B2, “Cyclic ureas as inhibitors of rock” (BRISTOL-MYERS SQUIBB COMPANY, priority 2015, dated 2018).

One may read the IC50 as the concentration that gives 50% inhibition. High values mean weaker potency in that assay, low ones greater potency in that assay.

Chain of ROCK2 (O75116 whole entry, species assumed): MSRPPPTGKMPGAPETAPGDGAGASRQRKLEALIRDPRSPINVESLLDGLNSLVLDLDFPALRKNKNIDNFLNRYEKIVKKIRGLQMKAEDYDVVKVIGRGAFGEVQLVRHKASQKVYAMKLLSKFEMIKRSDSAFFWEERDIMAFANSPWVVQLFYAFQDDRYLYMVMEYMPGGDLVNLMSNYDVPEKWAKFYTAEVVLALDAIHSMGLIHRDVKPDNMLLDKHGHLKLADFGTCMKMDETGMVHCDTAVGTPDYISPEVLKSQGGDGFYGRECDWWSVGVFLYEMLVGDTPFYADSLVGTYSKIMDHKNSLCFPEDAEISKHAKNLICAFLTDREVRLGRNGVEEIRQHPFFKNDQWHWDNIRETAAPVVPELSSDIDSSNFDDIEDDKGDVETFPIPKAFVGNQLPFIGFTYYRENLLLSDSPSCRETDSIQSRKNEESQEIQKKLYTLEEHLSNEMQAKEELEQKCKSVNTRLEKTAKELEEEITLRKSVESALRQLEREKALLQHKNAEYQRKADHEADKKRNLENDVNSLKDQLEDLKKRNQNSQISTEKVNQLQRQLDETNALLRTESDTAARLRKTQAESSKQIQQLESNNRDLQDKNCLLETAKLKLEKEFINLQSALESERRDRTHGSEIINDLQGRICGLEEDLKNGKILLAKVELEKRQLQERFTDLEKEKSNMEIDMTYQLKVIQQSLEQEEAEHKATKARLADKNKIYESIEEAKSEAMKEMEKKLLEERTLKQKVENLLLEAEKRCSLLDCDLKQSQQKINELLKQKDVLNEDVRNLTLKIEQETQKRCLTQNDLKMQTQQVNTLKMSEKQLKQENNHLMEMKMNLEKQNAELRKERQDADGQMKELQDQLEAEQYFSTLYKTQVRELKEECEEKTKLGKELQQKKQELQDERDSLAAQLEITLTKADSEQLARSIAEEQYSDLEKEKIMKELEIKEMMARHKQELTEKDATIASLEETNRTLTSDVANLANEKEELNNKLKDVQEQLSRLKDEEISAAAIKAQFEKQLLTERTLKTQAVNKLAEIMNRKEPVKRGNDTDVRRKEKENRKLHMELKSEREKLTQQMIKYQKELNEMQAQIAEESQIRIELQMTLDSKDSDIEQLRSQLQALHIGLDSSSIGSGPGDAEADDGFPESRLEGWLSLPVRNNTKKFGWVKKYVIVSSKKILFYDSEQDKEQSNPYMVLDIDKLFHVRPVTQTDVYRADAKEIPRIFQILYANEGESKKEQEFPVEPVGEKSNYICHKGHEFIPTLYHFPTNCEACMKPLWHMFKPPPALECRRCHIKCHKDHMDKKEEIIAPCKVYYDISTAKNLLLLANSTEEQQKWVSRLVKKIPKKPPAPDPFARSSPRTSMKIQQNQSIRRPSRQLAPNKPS

This experiment concerns the target ROCK2 (Homo sapiens, UniProt O75116). Kind of experiment: ROCK2 kinase inhibition assay (Caliper LABCHIP, FITC peptide substrate). Conditions: 5 μM ATP, 1.5 μM peptide substrate; value ranges. The format is biochemical. Summed up: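 Dose-response curves gave IC50 from inhibition of peptide phosphorylation, measured by LabChip separation after EDTA stop. Reactions used 1.5 μM FITC-labelled peptide, 5 μM ATP, 20 mM HEPES pH 7.5 with MgCl2, Brij-35, DTT, and under 2% DMSO.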
With `COc1ccc(F)c(Cn2ccn(-c3ccc(-c4cn[nH]c4)c(OC)n3)c2=O)c1` [Example 373, 1-(2-fluoro-5-methoxybenzyl)-3-(6-methoxy-5-(1H-pyrazol-4-yl)pyridin-2-yl)-1H-imidazol-2(3H)-one], the half-maximal inhibitory concentration (IC50) was below 2 nM.
The molecule `COc1ccc(F)cc1Cn1ccn(-c2ccc(-c3cn[nH]c3)c(OC)n2)c1=O` [Example 374, 1-(5-fluoro-2-methoxybenzyl)-3-(6-methoxy-5-(1H-pyrazol-4-yl)pyridin-2-yl)-1H-imidazol-2(3H)-one] gave a half-maximal inhibitory concentration (IC50) of 2.1 to 20 nM.
As for `COc1nc(-n2ccn(Cc3cccc(F)c3F)c2=O)ccc1-c1cn[nH]c1` [Example 375, 1-(2,3-difluorobenzyl)-3-(6-methoxy-5-(1H-pyrazol-4-yl)pyridin-2-yl)-1H-imidazol-2(3H)-one], the figure is 2.1 to 20 nM; as for `COc1cccc(Cn2ccn(-c3ccc(-c4cn[nH]c4)c(OC)n3)c2=O)c1` [Example 376, 1-(6-methoxy-5-(1H-pyrazol-4-yl)pyridin-2-yl)-3-(3-methoxybenzyl)-1H-imidazol-2(3H)-one], below 2 nM.
The figure for `COc1nc(-n2ccn(Cc3ccc(F)c(OCC4CC4)c3)c2=O)ccc1-c1cn[nH]c1` [Example 377, 1-(3-(cyclopropylmethoxy)-4-fluorobenzyl)-3-(6-methoxy-5-(1H-pyrazol-4-yl)pyridin-2-yl)-1H-imidazol-2(3H)-one] is 2.1 to 20 nM.
For the molecule `COc1nc(-n2ccn(Cc3cccc(OCC4CC4)c3)c2=O)ccc1-c1cn[nH]c1` [Example 378, 1-(3-(cyclopropylmethoxy)benzyl)-3-(6-methoxy-5-(1H-pyrazol-4-yl)pyridin-2-yl)-1H-imidazol-2(3H)-one], the IC50 is below 2 nM.
`COc1nc(-n2ccn(Cc3cccc(F)c3C)c2=O)ccc1-c1cn[nH]c1` [Example 380, 1-(3-fluoro-2-methylbenzyl)-3-(6-methoxy-5-(1H-pyrazol-4-yl)pyridin-2-yl)-1H-imidazol-2(3H)-one] had an IC50 below 2 nM.
The figure for `COc1nc(-n2ccn(Cc3ccc(F)cc3C)c2=O)ccc1-c1cn[nH]c1` [Example 381, 1-(4-fluoro-2-methylbenzyl)-3-(6-methoxy-5-(1H-pyrazol-4-yl)pyridin-2-yl)-1H-imidazol-2(3H)-one] is 2.1 to 20 nM; for `COc1nc(-n2ccn(Cc3cc(F)ccc3C)c2=O)ccc1-c1cn[nH]c1` [Example 382, 1-(5-fluoro-2-methylbenzyl)-3-(6-methoxy-5-(1H-pyrazol-4-yl)pyridin-2-yl)-1H-imidazol-2(3H)-one] it is 2.1 to 20 nM.
As for `COc1cc(F)ccc1Cn1ccn(-c2ccc(-c3cn[nH]c3)c(OC)n2)c1=O` [Example 383, 1-(4-fluoro-2-methoxybenzyl)-3-(6-methoxy-5-(1H-pyrazol-4-yl)pyridin-2-yl)-1H-imidazol-2(3H)-one], the figure is 20.1 to 200 nM; as for `COc1nc(-n2ccn(Cc3cc(F)cc(OCC4CC4)c3)c2=O)ccc1-c1cn[nH]c1` [Example 395, 1-(3-(cyclopropylmethoxy)-5-fluorobenzyl)-3-(6-methoxy-5-(1H-pyrazol-4-yl)pyridin-2-yl)-1H-imidazol-2(3H)-one], 2.1 to 20 nM.
Molecule `O=c1n(Cc2cc(F)cc(OCC3CC3)c2)ccn1-c1ccc(-c2cn[nH]c2)cc1` [Example 396, 1-(4-(1H-pyrazol-4-yl)phenyl)-3-(3-(cyclopropylmethoxy)-5-fluorobenzyl)-1H-imidazol-2(3H)-one] registered an IC50 of 20.1 to 200 nM.
For the molecule `Cc1c(F)cccc1Cn1ccn(-c2ccc(-c3cn[nH]c3)cc2)c1=O` [Example 402, 1-(4-(1H-pyrazol-4-yl)phenyl)-3-(3-fluoro-2-methylbenzyl)-1H-imidazol-2(3H)-one], the half-maximal inhibitory concentration (IC50) lay in the range of 2.1 to 20 nM.
As for `Cc1cc(F)ccc1Cn1ccn(-c2ccc(-c3cn[nH]c3)cc2)c1=O` [Example 403, 1-(4-(1H-pyrazol-4-yl)phenyl)-3-(4-fluoro-2-methylbenzyl)-1H-imidazol-2(3H)-one], the figure is 20.1 to 200 nM.
In the case of `Cc1ccc(F)cc1Cn1ccn(-c2ccc(-c3cn[nH]c3)cc2)c1=O` [Example 404, 1-(4-(1H-pyrazol-4-yl)phenyl)-3-(5-fluoro-2-methylbenzyl)-1H-imidazol-2(3H)-one], the IC50 lay within 20.1 to 200 nM.
The figure for `COc1c(F)cccc1Cn1ccn(-c2ccc(-c3cn[nH]c3)cc2)c1=O` [Example 405, 1-(4-(1H-pyrazol-4-yl)phenyl)-3-(3-fluoro-2-methoxybenzyl)-1H-imidazol-2(3H)-one] is 20.1 to 200 nM; for `O=c1n(Cc2cccc(F)c2F)ccn1-c1ccc(-c2cn[nH]c2)cc1` [Example 406, 1-(4-(1H-pyrazol-4-yl)phenyl)-3-(2,3-difluorobenzyl)-1H-imidazol-2(3H)-one] it is 20.1 to 200 nM.
As for `COc1cc(Cn2ccn(-c3ccc(-c4cn[nH]c4)cc3)c2=O)ccc1F` [Example 407, 1-(4-(1H-pyrazol-4-yl)phenyl)-3-(4-fluoro-3-methoxybenzyl)-1H-imidazol-2(3H)-one], the figure is 20.1 to 200 nM.
The figure for `O=c1n(Cc2cc(F)ccc2F)ccn1-c1ccc(-c2cn[nH]c2)cc1` [Example 408, 1-(4-(1H-pyrazol-4-yl)phenyl)-3-(2,5-difluorobenzyl)-1H-imidazol-2(3H)-one] is 20.1 to 200 nM.
Consider `O=c1n(Cc2ccc(F)cc2F)ccn1-c1ccc(-c2cn[nH]c2)cc1` [Example 409, 1-(4-(1H-pyrazol-4-yl)phenyl)-3-(2,4-difluorobenzyl)-1H-imidazol-2(3H)-one], for which the IC50 lay in the range of 20.1 to 200 nM.
As for `O=c1n(Cc2cccnc2)ccn1-c1ccc(-c2cn[nH]c2)cc1` [Example 410, 1-(4-(1H-pyrazol-4-yl)phenyl)-3-(pyridin-3-ylmethyl)-1H-imidazol-2(3H)-one], the figure is 20.1 to 200 nM; as for `COc1cc(F)ccc1Cn1ccn(-c2ccc(-c3cn[nH]c3)cc2)c1=O` [Example 412, 1-(4-(1H-pyrazol-4-yl)phenyl)-3-(4-fluoro-2-methoxybenzyl)-1H-imidazol-2(3H)-one], 200 to 2000 nM; as for `COc1nc(-n2ccn(Cc3cccc(F)c3)c2=O)ccc1-c1cn[nH]c1` [Example 413, 1-(3-fluorobenzyl)-3-(6-methoxy-5-(1H-pyrazol-4-yl)pyridin-2-yl)-1H-imidazol-2(3H)-one], below 2 nM.
Molecule `COc1nc(-n2ccn(Cc3ccc(F)cc3F)c2=O)ccc1-c1cn[nH]c1` [Example 414, 1-(2,4-difluorobenzyl)-3-(6-methoxy-5-(1H-pyrazol-4-yl)pyridin-2-yl)-1H-imidazol-2(3H)-one] came in with an IC50 of 20.1 to 200 nM.
The figure for `COc1nc(-n2ccn(Cc3cc(F)ccc3F)c2=O)ccc1-c1cn[nH]c1` [Example 415, 1-(2,5-difluorobenzyl)-3-(6-methoxy-5-(1H-pyrazol-4-yl)pyridin-2-yl)-1H-imidazol-2(3H)-one] is 2.1 to 20 nM; for `COc1nc(-n2ccn(Cc3cccc(F)c3OC)c2=O)ccc1-c1cn[nH]c1` [Example 416, 1-(3-fluoro-2-methoxybenzyl)-3-(6-methoxy-5-(1H-pyrazol-4-yl)pyridin-2-yl)-1H-imidazol-2(3H)-one] it is 2.1 to 20 nM.
The figure for `COc1nc(-n2ccn(Cc3cccnc3)c2=O)ccc1-c1cn[nH]c1` [Example 417, 1-(6-methoxy-5-(1H-pyrazol-4-yl)pyridin-2-yl)-3-(pyridin-3-ylmethyl)-1H-imidazol-2(3H)-one] is 2.1 to 20 nM.
The figure for `COc1nc(-n2ccn(CC3CCCO3)c2=O)ccc1-c1cn[nH]c1` (stereo not shown) [Example 418, 1-(6-methoxy-5-(1H-pyrazol-4-yl)pyridin-2-yl)-3-((tetrahydrofuran-2-yl)methyl)-1H-imidazol-2(3H)-one] is 20.1 to 200 nM; for `COc1nc(-n2ccn(Cc3cccc(OC(F)F)c3)c2=O)ccc1-c1cn[nH]c1` [Example 419, 1-(3-(difluoromethoxy)benzyl)-3-(6-methoxy-5-(1H-pyrazol-4-yl)pyridin-2-yl)-1H-imidazol-2(3H)-one] it is below 2 nM; for `COc1nc(-n2ccn(CC3CCCCC3)c2=O)ccc1-c1cn[nH]c1` [Example 420, 1-(cyclohexylmethyl)-3-(6-methoxy-5-(1H-pyrazol-4-yl)pyridin-2-yl)-1H-imidazol-2(3H)-one] it is 20.1 to 200 nM.
`COc1cccc(CN2CCN(c3cc(OC)c(-c4cn[nH]c4)cn3)C2=O)c1` [Example 423, 1-(4-Methoxy-5-(1H-pyrazol-4-yl)pyridin-2-yl)-3-(3-methoxybenzyl)imidazolidin-2-one] gave an IC50 of 2.1 to 20 nM.
As for `COc1ccc(F)cc1CN1CCN(c2ccc(-c3cn[nH]c3)c(F)c2)C1=O` [Example 424, 1-(5-fluoro-2-methoxybenzyl)-3-(3-fluoro-4-(1H-pyrazol-4-yl)phenyl)imidazolidin-2-one], the figure is 2.1 to 20 nM; as for `COc1cc(F)cc(CN2CCN(c3ccc(-c4cn[nH]c4)c(F)c3)C2=O)c1` [Example 425, 1-(3-fluoro-4-(1H-pyrazol-4-yl)phenyl)-3-(3-fluoro-5-methoxybenzyl)imidazolidin-2-one], below 2 nM; as for `COc1ccc(F)c(CN2CCN(c3ccc(-c4cn[nH]c4)c(F)c3)C2=O)c1` [Example 426, 1-(3-fluoro-4-(1H-pyrazol-4-yl)phenyl)-3-(2-fluoro-5-methoxybenzyl)imidazolidin-2-one], 2.1 to 20 nM.
Molecule `COc1cccc(CN2CCN(c3ccc(-c4cn[nH]c4)cn3)C2=O)c1F` [Example 427, 1-(5-(1H-pyrazol-4-yl)pyridin-2-yl)-3-(2-fluoro-3-methoxybenzyl)imidazolidin-2-one] showed an IC50 of 20.1 to 200 nM.
The figure for `COc1cc(F)cc(CN2CCN(c3ccc(-c4cn[nH]c4)cn3)C2=O)c1` [Example 428, 1-(5-(1H-pyrazol-4-yl)pyridin-2-yl)-3-(3-fluoro-5-methoxybenzyl)imidazolidin-2-one] is 2.1 to 20 nM; for `COc1cc(CN2CCN(c3ccc(-c4cn[nH]c4)cn3)C2=O)ccc1F` [Example 429, 1-(5-(1H-pyrazol-4-yl)pyridin-2-yl)-3-(4-fluoro-3-methoxybenzyl)imidazolidin-2-one] it is 2.1 to 20 nM.
